Measured values reported in patent publication US20090047287A1, “MODULATION OF BONE FORMATION” (Wyeth, priority 2006, published 2009).

T1: purified recombinant human GST-14-3-3β (Biomol), P31946
T1 chain: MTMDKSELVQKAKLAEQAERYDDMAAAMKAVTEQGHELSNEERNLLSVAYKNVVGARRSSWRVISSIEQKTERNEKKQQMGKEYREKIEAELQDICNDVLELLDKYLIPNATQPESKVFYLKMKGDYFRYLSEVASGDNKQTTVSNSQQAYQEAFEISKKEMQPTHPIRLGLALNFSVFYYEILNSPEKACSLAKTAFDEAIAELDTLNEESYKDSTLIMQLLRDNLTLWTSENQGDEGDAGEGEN


Legend:
[1] = tested on: 14-3-3β protein; test: Ror2 activation in U2OS cells, phosphotyrosine precipitation, 14-3-3β blot; format: cell-based, human; details: untransfected U2OS cells, antibody 1 h at 37° C., vs IgG control
Procedure: (§1) Cells were solubilized in lysis buffer (150 mM NaCl, 50 mM Tris-HCl, pH 7.5, 1 mM EDTA, 1% Triton X100) supplemented with protease and phosphatase inhibitor cocktails (Sigma) and the extracts were clarified by centrifugation at 10,000×g for 10 min at 4° C. For Flag immunoprecipitation, 1 mg of total cell lysates was incubated with 30 μl of M2 Flag affinity agarose (Sigma) for 1 h with rotation at 4° C. The beads were collected by centrifugation and washed three times in lysis buffer containing 350 mM NaCl and three times in lysis buffer. For 14-3-3β precipitation, 15 μl of 14-3-3β antibody was incubated with 30 μl of protein A sepharose in 1 ml of lysis buffer overnight at 4° C. and the beads were collected by centrifugation and washed in lysis buffer prior to addition of 1 mg of total cell lysates. The binding reaction was carried out for 2 h at 4° C. with mild rotation and the beads were collected and washed as for Flag precipitation. For phosphotyrosine precipitation, 1 mg (for detecting over-expressed proteins) or 1.5 mg (for detecting endogenous proteins) of cellular extract was added to 100 μl of G410 beads and allowed to attach for 3 h at 4° C. At this time, P-Tyr-100 immobilized antibody (100 μl) was added to the mix for an additional 3 h. All beads were collected by centrifugation and washed as for Flag precipitation. […]

[2] = target: T2, Ror2 receptor (Homo sapiens, UniProt Q01974); test: Ror2 dimerization in U2OS cells, Flag/His-tagged Ror2 co-immunoprecipitation; format: cell-based; details: antibody 1 h at 37 C, vs non-specific goat IgG
T2 construct: expressed in transfected cells; host or cells: U2OS
Procedure: For Ror2 plasmid transfections, U2OS cells were seeded at ˜80% confluent density and transfected 24 h later with 11 μg of total plasmid DNA per 19.6 cm^2 using Fugene6 transfection reagent (Roche Applied Science, Indianapolis, Ind.) per manufacturer's instructions. For siRNA transfections, U2OS cells were plated on 6-well plates at 52,000 cells/cm^2 and transfected 24 h later with 25 nM of Ror2 siRNA or non-specific siRNA (both from Dharmacon Inc., Lafayette, Colo.) using 10 μl of Lipofectamine 2000 reagent per manufacturer's instructions.
Cells were solubilized in lysis buffer (150 mM NaCl, 50 mM Tris-HCl, pH 7.5, 1 mM EDTA, 1% Triton X100) supplemented with protease and phosphatase inhibitor cocktails (Sigma) and the extracts were clarified by centrifugation at 10,000×g for 10 min at 4° C. For Flag immunoprecipitation, 1 mg of total cell lysates was incubated with 30 μl of M2 Flag affinity agarose (Sigma) for 1 h with rotation at 4° C. The beads were collected by centrifugation and washed three times in lysis buffer containing 350 mM NaCl and three times in lysis buffer. For 14-3-3β precipitation, 15 μl of 14-3-3β antibody was incubated with 30 μl of protein A sepharose in 1 ml of lysis buffer overnight at 4° C. and the beads were collected by centrifugation and washed in lysis buffer prior to addition of 1 mg of total cell lysates. […]

[3] = target: T3, Ror2 tyrosine kinase (Homo sapiens, UniProt Q01974); test: Ror2 activation in U2OS cells, phosphotyrosine precipitation, Ror2 blot; format: cell-based; details: untransfected U2OS cells, antibody 1 h at 37° C., vs IgG control
T3 construct: western immunoblotting for the endogenous Ror2 protein; endogenous in cells; host or cells: U2OS
Procedure: as §1

[4] = tested on: mouse calvarial bones; test: Ex vivo mouse calvarial culture with shRNA adenovirus and antibody, histomorphometry (Bioquant); format: cell-based; details: mouse calvariae, 7 days; shRNA 5×10^7 viral particles/ml, antibody 12 μg/ml; vs scrambled shRNA and IgG
Procedure: We next tested if in vitro effects of Ror2 activation and 14-3-3β inhibition translate into increased bone formation in ex vivo organ cultures. Calvarial bones of 4 days old mouse littermates were infected with adenoviruses containing scrambled shRNA or 14-3-3β-specific shRNA at 5×10^7 viral particles/ml; and 48 h later were treated with 12 μg/ml of anti-Ror2 antibody or non-specific IgG in presence of 15 μg/ml calcein. After 7 days of culture with adenoviruses and antibodies, the bones were stained with hematoxylin-eosin and consistent 300 μm stretches (450 μm away from frontal sutures) were subjected to histomorphometric analysis using Bioquant-NOVA MR 5.50.8 (Nashville, Tenn.). Under control conditions of scrambled shRNA infection and IgG treatment, 600 μm length of calvaria contained 9394±1333 μm^2 of bone area and 39.5±7.4 osteoblasts.

[5] = tested on: human mesenchymal stem cells (hMSC); test: Mineralized matrix formation in hMSC, alizarin red-S staining; format: cell-based
Procedure: Human MSC were seeded at 6,000/cm^2 in 12-, or 6-well plates and allowed to adhere and proliferate overnight. Cells were infected for 24 h in 0.4 ml/cm^2 MSCGM using Ror2, Ror2KD, or β-gal adenoviruses at multiplicity of infection (MOI)=750 in presence of hCAR (MOI=750) to improve infection efficiency. After 24 h, cells were washed once in PBS and MSCGM, MSCGM supplemented with 0.05 mM ascorbic acid and 10 mM β-glycerophosphate, or MSCGM containing adipogenic supplements (PT-3004, Cambrex) were added. Where indicated, 100 nM dexamethasone (dex) and/or the indicated antibodies were added to the medium. For shRNA infection, cells were seeded at 6,000/cm^2 in 12- or 6-well plates and allowed to adhere and proliferate for 3 days. Cells were infected for 72 h in 0.4 ml/cm^2 MSCGM using adenoviruses coding for Ror2-specific shRNA or EGFP-specific shRNA at 4,000 viral particles per cell (based on the original seeding density) in presence of hCAR (MOI=750). After 72 h, cells were washed once in PBS, and MSCGM or MSCGM supplemented with 0.05 mM ascorbic acid, 10 mM β-glycerophosphate were added. Where indicated 100 nM dex and/or specific antibodies were added. Every 5 days, either the entire medium or ½ of it was replaced with fresh medium.
Formation of mineralized nodules by hMSC was determined on 12-well plates by alizarin red-S histochemical staining. The cells and matrix were fixed at RT for 1 h with 70% (v/v) ethanol, washed with de-ionized water and stained for 10 min at RT with 40 mM alizarin red-S, pH 4.2. The stained matrix was washed with de-ionized water and photographed. To quantify the level of alizarin red-S staining, the dye was eluted with 1 ml/well of 10% (w/v) Cetylpyridinium Chloride. Alizarin red-S in the eluted samples was quantified (versus a standard curve of 0-800 μM dye) at 562 nm with a microplate reader.

[6] = target: T4, Ror2-TrkB chimera (Homo sapiens, UniProt Q01974, T245A); test: Ror2-TrkB chimera CRE-luciferase reporter assay in HEK293 cells; format: cell-based; details: HEK-CRE cells expressing Ror2-TrkB chimera, 24 h, compared to non-specific IgG
T4 construct: extracellular domain of Ror2 (aa 1-407) fused to the transmembrane and intracellular domains of TrkB (aa 432-822); expressed in transfected cells
Text: FIG. 12 illustrates generation of a high throughput, high sensitivity assay for Ror2 activity. A. Schematic representation of the assay that utilizes the signaling pathway of the TrkB receptor. The TrkB receptor is activated by ligand-induced homo-dimerization that causes phosphorylation of Erk and stimulation of the cAMP response element (CRE) in the promoter of target genes. We generated a chimeric receptor consisting of the extracellular domain of Ror2 (aa 1-407) fused to the transmembrane and intracellular domains of TrkB (aa 432-822). When using this chimera, agents that cause Ror2 dimerization activate TrkB signaling pathway and this activation can be assessed by a CRE promoter-luciferase reporter assay. B. HEK293 cells were stably transfected with the Ror2-TrkB chimera and CRE-luciferase plasmids, treated with the indicated amounts of the anti-Ror2 antibody or non-specific IgG for 24 h, and luciferase activity was assessed. Luciferase activity observed upon treatment with the non-specific IgG was set at 1. […]
The TrkB receptor is activated by ligand-induced homo-dimerization that causes phosphorylation of Erk and stimulation of the cAMP response element (CRE) in the promoter of target genes. […] Colonies were grown at 37 C with 350 μg/ml hygromycin and levels of Ror2-TrkB expression were assessed by western immunoblotting and immunocytochemistry. […]

[7] = target: T1, purified recombinant human GST-14-3-3β …

T3 sequence (Q01974 34-943): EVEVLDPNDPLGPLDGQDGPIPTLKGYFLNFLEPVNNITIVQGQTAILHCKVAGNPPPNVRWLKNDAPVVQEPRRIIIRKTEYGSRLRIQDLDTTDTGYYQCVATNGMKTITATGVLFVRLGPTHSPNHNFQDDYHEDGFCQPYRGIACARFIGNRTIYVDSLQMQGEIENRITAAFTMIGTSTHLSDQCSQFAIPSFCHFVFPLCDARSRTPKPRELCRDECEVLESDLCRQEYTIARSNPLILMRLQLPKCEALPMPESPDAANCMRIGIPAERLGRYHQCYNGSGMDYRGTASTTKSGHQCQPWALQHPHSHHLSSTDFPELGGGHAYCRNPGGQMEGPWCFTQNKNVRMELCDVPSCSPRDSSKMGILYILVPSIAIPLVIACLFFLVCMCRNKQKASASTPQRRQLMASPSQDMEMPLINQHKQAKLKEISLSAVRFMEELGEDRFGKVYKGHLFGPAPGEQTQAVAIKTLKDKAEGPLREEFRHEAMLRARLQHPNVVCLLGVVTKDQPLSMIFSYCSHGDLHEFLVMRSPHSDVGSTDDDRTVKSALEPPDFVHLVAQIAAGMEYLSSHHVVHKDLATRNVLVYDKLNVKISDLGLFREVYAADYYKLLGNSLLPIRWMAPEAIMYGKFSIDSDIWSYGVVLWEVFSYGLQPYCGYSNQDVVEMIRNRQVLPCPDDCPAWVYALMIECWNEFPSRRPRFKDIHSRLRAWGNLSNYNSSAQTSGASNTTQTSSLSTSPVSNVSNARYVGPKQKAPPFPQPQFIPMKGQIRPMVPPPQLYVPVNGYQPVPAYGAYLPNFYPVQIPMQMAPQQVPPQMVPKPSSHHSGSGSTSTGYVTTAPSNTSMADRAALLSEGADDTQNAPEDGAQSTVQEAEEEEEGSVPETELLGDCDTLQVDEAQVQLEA
T2 sequence (Q01974 34-943): as above
T2 sequence (Q01974 34-943): as above
T4 sequence (Q01974 with tags, fused parts or gaps T245A): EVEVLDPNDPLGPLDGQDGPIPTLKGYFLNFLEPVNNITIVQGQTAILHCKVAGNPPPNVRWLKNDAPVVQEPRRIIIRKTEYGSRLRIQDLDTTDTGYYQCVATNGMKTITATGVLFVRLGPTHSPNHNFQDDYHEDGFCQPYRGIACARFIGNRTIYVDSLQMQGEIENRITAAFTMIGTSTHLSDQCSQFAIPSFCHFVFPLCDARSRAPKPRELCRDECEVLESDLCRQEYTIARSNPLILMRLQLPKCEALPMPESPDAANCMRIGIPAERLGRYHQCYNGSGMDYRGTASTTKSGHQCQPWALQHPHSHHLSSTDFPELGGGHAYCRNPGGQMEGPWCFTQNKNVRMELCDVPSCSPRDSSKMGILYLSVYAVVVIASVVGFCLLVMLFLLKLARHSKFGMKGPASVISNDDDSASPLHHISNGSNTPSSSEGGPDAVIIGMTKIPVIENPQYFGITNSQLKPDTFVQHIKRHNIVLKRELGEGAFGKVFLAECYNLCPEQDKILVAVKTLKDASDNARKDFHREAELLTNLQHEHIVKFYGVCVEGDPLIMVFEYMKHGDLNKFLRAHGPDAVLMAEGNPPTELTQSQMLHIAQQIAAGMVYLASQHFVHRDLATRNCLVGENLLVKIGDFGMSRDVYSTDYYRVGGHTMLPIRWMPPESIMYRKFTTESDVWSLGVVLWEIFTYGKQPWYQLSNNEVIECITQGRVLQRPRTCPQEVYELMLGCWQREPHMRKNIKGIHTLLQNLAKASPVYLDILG

Ror2 homodimer formation (His-tagged with Flag-tagged Ror2) [2]	autophosphorylation of the Ror2 kinase [3]	luciferase activity (CRE promoter) [6]	Molecule	phosphorylation of 14-3-3β protein [1]	increase in the osteoblast number [4] [%]	increase in the total bone area [4] [%]	antibody effect on matrix mineralization when Ror2 expression is inhibited ([5]; hMSC infected with Ror2-specific shRNA, 100 nM dex, 9 days)	calcified matrix formation in absence of dex ([5]; hMSC infected with Ror2 adenovirus, no dex, 19 days, vs non-specific goat IgG)	extent of calcified matrix formation (alizarin red-S) ([5]; hMSC, osteogenic cocktail with 100 nM dex, increasing amounts of IgG, 9 days)	in vitro kinase assay, immunoblot with phosphotyrosine antibody [7]
strongly enhanced	significant autophosphorylation	robust dose-dependent increase	anti-Ror2 antibody: Ror2-specific goat polyclonal IgG raised against the extracellular domain of human Ror2, R&D Systems, AF2064	phosphorylation	85	50	disappeared	induced calcified matrix formation	dose-dependently increased	
			purified recombinant GST-tagged cytosolic domain of human Ror2 (Invitrogen) (protein) VCMCRNKQKASASTPQRRQLMASPSQDMEMPLINQHKQAKLKEISLSAVRFMEELGEDRFGKVYKGHLFGPAPGEQTQAVAIKTLKDKAEGPLREEFRHEAMLRARLQHPNVVCLLGVVTKDQPLSMIFSYCSHGDLHEFLVMRSPHSDVGSTDDDRTVKSALEPPDFVHLVAQIAAGMEYLSSHHVVHKDLATRNVLVYDKLNVKISDLGLFREVYAADYYKLLGNSLLPIRWMAPEAIMYGKFSIDSDIWSYGVVLWEVFSYGLQPYCGYSNQDVVEMIRNRQVLPCPDDCPAWVYALMIECWNEFPSRRPRFKDIHSRLRAWGNLSNYNSSAQTSGASNTTQTSSLSTSPVSNVSNARYVGPKQKAPPFPQPQFIPMKGQIRPMVPPPQLYVPVNGYQPVPAYGAYLPNFYPVQIPMQMAPQQVPPQMVPKPSSHHSGSGSTSTGYVTTAPSNTSMADRAALLSEGADDTQNAPEDGAQSTVQEAEEEEEGSVPETELLGDCDTLQVDEAQVQLEA							Ror2c phosphorylated both 14-3-3 β and itself
